The record followed here is patent publication US20260275319A1, “ARCHAEAL PEPTIDE RECOMBINASE – A NOVEL PEPTIDE LIGATING ENZYME” (MAX-PLANCK-GESELLSCHAFT ZUR FÖRDERUNG DER WISSENSCHAFTEN …, priority 2019, published 2026).

The target in assay [1] is M. jannaschii Adriase^S1A. As to conditions: MST, 25° C., 10 nM FITC peptide, three independent measurements.
Method: MST measurements were performed with a Monolith NT.115 (Nanotemper), using various MST power and laser intensity settings to test the general validity of the obtained data. The final results were obtained in three independent experiments and measured at a temperature of 25° C., using MST power 80% and laser intensity 40%.
In a second set of MST experiments, a more detailed analysis of the binding motif (FIG. 18A-F and table in FIG. 5B) was performed using synthetic peptides (Genscript) based on the M. jannaschii MtrA sequence. […] For the MST measurements, 10 nM of these peptides were mixed with a serial dilution of M. jannaschii Adriase^S1A and the experiment was otherwise performed as described for the M. jannaschii MtrA^Δ194-245-Adriase^S1A and the M. jannaschii MtrA^Δ174-245 Adriase^S1A interactions, above.
A further assay relates to M. mazei Adriase. The experiment in a line: Ligation motif analysis with primary and secondary substrates. As to conditions: 25 μM substrates, 400× molar excess over Adriase, 50° C. The class given is biochemical.

Chain of M. jannaschii Adriase^S1A (as listed by the source): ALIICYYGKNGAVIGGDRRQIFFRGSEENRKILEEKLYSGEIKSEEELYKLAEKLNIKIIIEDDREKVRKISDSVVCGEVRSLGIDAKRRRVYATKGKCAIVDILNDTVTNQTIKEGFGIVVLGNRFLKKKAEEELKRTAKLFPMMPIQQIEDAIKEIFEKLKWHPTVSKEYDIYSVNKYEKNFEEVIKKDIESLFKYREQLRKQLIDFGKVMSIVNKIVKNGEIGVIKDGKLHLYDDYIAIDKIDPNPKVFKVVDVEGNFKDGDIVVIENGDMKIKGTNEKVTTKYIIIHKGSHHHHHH

For the sequence “KECLSKDPGAIDEDPFIIELKFITC [(5)KDPGA(10)]”, the KD entry in assay [1] is “as tightly as M. jannaschii MtrA^Δ194-245”.
Take “PGAFDADP (Methanosarcina mazei Go1; M. mazei PGA(5); listed as Methanosarcina mazei) [M. mazei MtrA-derived secondary substrate peptide]”: the “Adriase activity with substrate” value with M. mazei Adriase was “No Adriase activity”.
